The assay has as its system PTZ-induced seizures. Nature of the assay: PTZ seizure threshold test, tonic extension endpoint, Example 2. It is filed as in vivo, mice. Here is the method:
NIH Swiss mice (22-30 g) were kept in a vivarium under controlled environmental conditions (temperature, 22-26° C.; humidity, 40-50%) with an artificial 12-h light/dark cycle. Wood chips were used in all cages. Experiments were performed during the light phase of the light/dark cycle after a minimum 30-min period of acclimation to the experimental room. The animal facilities were fully accredited by the Association for Assessment and Accreditation of Laboratory Animal Care. All studies were performed under protocols approved by the Animal Care and Use Committee of the University of California, Davis in strict compliance with the Guide for the Care and Use of Laboratory Animals of the National Research Council (National Academy Press, Washington, D.C.; on the internet at nap.edu/readingroom/books/labrats/).
Midazolam was administered as a commercially available injectable solution (midazolam hydrochloride, 10 mg/10 ml; APP Pharmaceuticals, Schaumburg, Ill., USA) containing sodium chloride (0.8% w/v), disodium edetate (0.01% w/v), benzyl alcohol as preservative (1% v/v) with HCl to adjust the pH 3-3.6. Pentylenetetrazol (PTZ) (Sigma-Aldrich, St. Louis, Mo., USA) was dissolved in 0.9% w/v saline. The remaining test substances were all obtained from Tocris Bioscience (Ellisville, Mo., USA) except for clonazepam, which was from Sigma-Aldrich. Finasteride was dissolved in 25% hydroxypropyl-β-cyclodextrin (Trappsol; Cyclodextrin Technologies Development, High Springs, Fla., U.S.A.). Metyrapone was dissolved in double distilled water and PK 11195 and clonazepam were suspended in 1% Tween 80 and adjusted to volume with saline.
PTZ seizure threshold was determined according to a protocol used previously in our laboratory (Dhir et al., 2011). Intravenous PTZ elicits a sequence of seizure signs beginning with twitch and progressing to clonus and tonic limb extension. In the present study, tonic extension was used as the endpoint. […] It is noteworthy that this is the endpoint originally used in studies characterizing the actions of midazolam against PTZ seizures in mice (Pieri, 1983 Br J Clin Pharmacol 16 Suppl 1: 17S-27S). A 27 gauge-¾ inch “butterfly” needle was inserted into the lateral tail vein and the needle was secured with a narrow piece of adhesive tape. The animal was placed inside a 2 L glass beaker with free aeration from the top and allowed to move freely. The needle was connected by polyethylene tubing to a Beckton, Dickinson 1 ml syringe mounted on an infusion pump (Model ‘11’ plus syringe pump; Harvard Apparatus, Holliston, Mass.). PTZ solution (10 mg/ml) was infused at a constant rate of 0.5 ml/min. The infusion was stopped at 3 min or at the onset of tonic extension, whichever occurred first. The threshold value (mg/kg) for tonic extension was determined according to the formula: (infusion duration [sec]×infusion rate [ml/min]×PTZ concentration [mg/ml]×1000)/(60 [sec]×weight of mouse [g]).
In an initial experiment, the dose-response relationship for midazolam elevation of seizure threshold was assessed at doses of 100 μg/kg to 5 mg/kg (15 min pretreatment time). […] PK 11195 was used at a dose (15 mg/kg) as in the study of Ugale et al. (2004 Brain Res. 2004 Oct. 8; 1023(1):102-11). Clonazepam was administered at a dose of 100 μg/kg (Akula et al., 2009). The volume of all intraperitoneal injections was 10 ml/kg.
Results are expressed as mean±S.E.M.; the significance of the difference in the responses of treatment groups with respect to control is based on one-way analysis of variance (ANOVA) followed by specific post-hoc comparisons using Tukey's test. Differences are considered statistically significant when the probability of type I error was less than 0.05.

As to `CC(C)(C(=O)c1cccnc1)c1cccnc1` [metyrapone], the “PTZ seizure threshold when administered prior to midazolam” value (metyrapone 100 mg/kg i.p. 15 min before midazolam 500 μg/kg i.p. (FIG. 9)) was “further increment in threshold”. In addition, the “PTZ seizure threshold, by itself” value (metyrapone 100 mg/kg i.p. (FIG. 9)) is reported as “significant elevation in the threshold”.
`CC(C)(C)NC(=O)[C@H]1CC[C@H]2[C@@H]3CC[C@H]4NC(=O)C=C[C@]4(C)[C@H]3CC[C@]12C` [finasteride]: where the note is “finasteride 100 mg/kg i.p. 5 min before midazolam 100 μg/kg intratracheal (FIG. 13)”, the “effect on threshold elevation caused by intratracheal midazolam” value is recorded as “did significantly reduce the threshold elevation”. The “effect on threshold elevation caused by midazolam” value (finasteride 100 mg/kg i.p. 5 min before midazolam 500 μg/kg i.p. (FIG. 8)) is “partially reduce the threshold elevation”. The “effect on seizure threshold elevation produced by clonazepam” value is “did reduce the seizure threshold elevation” (finasteride 100 mg/kg i.p. before clonazepam 100 μg/kg i.p. (FIG. 11 upper panel)) and “trend toward an effect of finasteride, although it did not reach statistical significance” (finasteride before lower dose of clonazepam 25 μg/kg). The “PTZ seizure threshold, pretreatment by itself” value by setting is: (finasteride 100 mg/kg i.p., no midazolam (FIG. 8)) “did not alter the PTZ seizure threshold”; (finasteride 50 and 100 mg/kg i.p. (FIG. 13)) “did not alter the PTZ seizure threshold”.
Regarding `CCC(C)N(C)C(=O)c1cc2ccccc2c(-c2ccccc2Cl)n1` (centres unmarked) [PK 11195, 1-(2-chlorophenyl)-N-methyl-N-(1-methylpropyl)-3-isoquinolinecarboxamide], the “PTZ seizure threshold, by itself” value (PK 11195 15 mg/kg i.p.) is given as “did not affect the seizure threshold”. The “effect on seizure threshold elevation produced by clonazepam” value (PK 11195 15 mg/kg i.p. 30 min before clonazepam (FIG. 11 lower panel)) is “did not reduce the seizure threshold elevation”. In addition, the “effect on threshold elevation produced by midazolam” value (PK 11195 15 mg/kg i.p. 30 min before midazolam 500 μg/kg i.p. (FIG. 10)) is recorded as “significantly reduced the elevation in threshold”.
Regarding `CCOC(=O)c1ncn2c1CN(C)C(=O)c1cc(F)ccc1-2` [flumazenil], the “effect on threshold elevation caused by intratracheal midazolam” value (flumazenil 5 mg/kg i.p. 5 min before midazolam 100 and 200 μg/kg intratracheal (FIG. 12)) is on record as “did abolish the threshold elevation”. Also, the “PTZ seizure threshold, pretreatment by itself” value (flumazenil 5 mg/kg i.p. (FIG. 12)) was “did not alter the PTZ seizure threshold”.
For the molecule `O=C1CN=C(c2ccccc2Cl)c2cc([N+](=O)[O-])ccc2N1` [clonazepam], the “increase in threshold for tonic extension (vs vehicle only control)” value (clonazepam 100 μg/kg i.p., 15 min before i.v. PTZ infusion, in the absence of finasteride) turned out to be 2.8 fold.

The values are drawn from patent US20130309306A1, “INTRAPULMONARY BENZODIAZEPINE FOR THE TREATMENT AND PREVENTION OF SEIZURES” (priority 2010, published 2013).
